Source: publication PMC10060569 (Frontiers in Pharmacology, 2023)

Biological target: T1, 20KVIV23/26N-hP2X1R (Homo sapiens, UniProt P51575, L23V/M21V/R20K/V22I)
T1 construct: expressed in transfected cells; host or cells: Xenopus laevis oocytes (cRNA injection)
T1 sequence (P51575 1-399 R20K/M21V/V22I/L23V): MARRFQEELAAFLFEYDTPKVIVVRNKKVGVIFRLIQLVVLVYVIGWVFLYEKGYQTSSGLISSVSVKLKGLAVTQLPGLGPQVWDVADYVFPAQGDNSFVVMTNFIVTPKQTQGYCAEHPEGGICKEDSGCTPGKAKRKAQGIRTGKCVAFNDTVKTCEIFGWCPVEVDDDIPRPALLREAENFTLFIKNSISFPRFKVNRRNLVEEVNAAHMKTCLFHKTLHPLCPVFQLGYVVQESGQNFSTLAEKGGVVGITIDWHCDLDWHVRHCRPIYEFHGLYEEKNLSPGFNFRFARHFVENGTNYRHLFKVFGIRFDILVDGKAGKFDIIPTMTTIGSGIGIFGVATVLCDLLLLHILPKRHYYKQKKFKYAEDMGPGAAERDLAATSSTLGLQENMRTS
Assay: TEVC of ATP-induced currents, hP2X1R mutant in X. laevis oocytes (peak current protocol)
Assay type: cell-based
Text: Oocyte expression plasmids encoding the wild-type (wt) and N-terminally His-tagged (His-) fusion constructs of the hP2X2R, hP2X3R, hP2X4R, and hP2X7R, and the mutant His-^20RMVL^23KVIV^23S^26N-hP2X1R, S^15V-rP2X3R, and His-S^15V-hP2X3R were the same as used in previous research ([Hausmann et al., 2006]; [Wolf et al., 2011]; [Hausmann et al., 2014]; [Obrecht et al., 2019]). In most cases, the N-terminal His-tagged variants of P2XRs were used here and in the previous studies to allow biochemical analyses on affinity-purified proteins using the same constructs. Although this was not required for the present study, it allows for better comparability with our previous studies. Capped cRNAs of different P2XRs were already available in the research group or were synthesized as previously described ([Schmalzing et al., 1991]; [Stolz et al., 2015]). cRNA was injected into collagenase-defolliculated X. laevis oocytes in aliquots of 41 nl or 23 nl (see Supplementary Table S1 for the amount of cRNA used for expression of the indicated P2XR) using a Nanoliter 2000 injector (World Precision Instruments, Sarasota, United States of America) as described previously ([Hausmann et al., 2014]; [Stolz et al., 2015]; [Obrecht et al., 2019]). To express the heteromeric hP2X2/3 receptor, cRNAs encoding His-hP2X2R and wt-hP2X3R were coinjected at a ratio (w/w) of 1:6. Oocytes were stored at 19°C in an oocyte ringer solution (ORi^+) containing 90 mM NaCl, 1 mM KCl, 1 mM CaCl2, 1 mM MgCl2, and 10 mM HEPES (Carl Roth, Karlsruhe, Germany) adjusted to pH 7.4 with NaOH and supplemented with 50 μg/ml gentamicin (AppliChem, Darmstadt, Germany). […]
Ion currents mediated by P2X receptors were evoked by the indicated concentration of ATP or α,β-meATP and were recorded 1 or 2 days after cRNA injection at ambient temperature at a holding potential of −60 mV by two-electrode voltage clamp (TEVC) as previously described ([Hausmann et al., 2006]). […]

In the case of `O=C(O)Cc1ccccc1Nc1c(Cl)cccc1Cl` [Diclofenac, diclofenac], the “reversibility of the inhibitory effect” value is reported as “reversible”, the IC50 (1 µM ATP, peak current protocol, X. laevis oocytes) is reported as 338 µM and the inhibition at 1000 µM (read-out: Max. inhibition at 1 mM) is reported as 86.2%.
